The source of these data is patent publication US12298319B2, “Method for measuring alpha value of muscarinic M1 receptor positive allosteric modulators” (Takeda Pharmaceutical Company Limited, priority 2017, dated 2025).

One data set has as its target T1, M4R (Homo sapiens, UniProt P08173).
T1 sequence (P08173 1-479): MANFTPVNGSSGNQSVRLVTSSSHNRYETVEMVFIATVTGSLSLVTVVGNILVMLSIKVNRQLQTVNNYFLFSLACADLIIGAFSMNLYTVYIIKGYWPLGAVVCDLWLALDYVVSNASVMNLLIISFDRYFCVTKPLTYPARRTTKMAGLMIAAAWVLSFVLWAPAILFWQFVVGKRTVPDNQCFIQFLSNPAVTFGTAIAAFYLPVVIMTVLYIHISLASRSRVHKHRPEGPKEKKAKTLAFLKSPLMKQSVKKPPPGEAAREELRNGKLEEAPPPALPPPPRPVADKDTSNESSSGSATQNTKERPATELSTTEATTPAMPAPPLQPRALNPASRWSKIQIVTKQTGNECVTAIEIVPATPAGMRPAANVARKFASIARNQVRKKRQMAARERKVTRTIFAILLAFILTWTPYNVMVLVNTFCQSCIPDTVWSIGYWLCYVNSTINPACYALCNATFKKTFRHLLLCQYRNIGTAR
Kind of data set: Ca2+ flux PAM activity against other muscarinic receptor subtypes, M4R. The note with it: in the presence of EC20 ACh; read-out: PAM activity against other muscarinic receptor subtypes M4R pIP (converted). In kind it is cell-based.

Another data set has as its target T2, human M1Rs (Homo sapiens, UniProt P11229).
T2 sequence (P11229 1-460): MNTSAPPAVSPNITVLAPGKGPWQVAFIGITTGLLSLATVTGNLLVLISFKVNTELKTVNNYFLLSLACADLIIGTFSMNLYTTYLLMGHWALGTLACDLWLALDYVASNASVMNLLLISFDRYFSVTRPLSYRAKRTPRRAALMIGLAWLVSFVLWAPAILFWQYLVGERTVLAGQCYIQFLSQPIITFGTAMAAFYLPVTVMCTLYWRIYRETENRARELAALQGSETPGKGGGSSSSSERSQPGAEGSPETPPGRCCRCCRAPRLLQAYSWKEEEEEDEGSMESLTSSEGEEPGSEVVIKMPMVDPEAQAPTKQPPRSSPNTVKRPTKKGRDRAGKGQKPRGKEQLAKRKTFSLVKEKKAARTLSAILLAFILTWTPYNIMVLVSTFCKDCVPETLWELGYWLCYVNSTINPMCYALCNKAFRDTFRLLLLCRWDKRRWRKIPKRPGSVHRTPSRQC
The experiment in a line: Ca2+ flux assay in CHO-K1 cells stably expressing human M1R (FLIPR), agonist and PAM mode, operational model fit. The format is cell-based. The conditions noted are these: for log β Mean: allosteric effect of PAM on signaling efficacy of ACh; for log β Mean / Log TB Mean: operational model; for EC50: mean of three independent experiments; for Log TB Mean: intrinsic agonistic efficacy. As to the method:
Chinese hamster ovary (CHO-K1) cells stably expressing human M1Rs (hM1R-CHO) were plated in black-walled clear-bottomed 384-well plates (5,000 cells/well) and cultured overnight at 37° C. in the presence of 5% CO2 in Ham's F-12 medium supplemented with 10% FBS and 100 U/mL penicillin-streptomycin. The following day, the medium was removed and incubated with assay buffer (Hank's balanced salt solution with 20 mM HEPES, 0.1% fatty acid free BSA) containing 2.5 μg/mL Fluo-4 AM and 1.25 mM probenecid for 30 min at 37° C. in the presence of 5% CO2. After 30 min incubation at room temperature, cells were stimulated with compounds. In this experiment, ACh and each PAM were added to the cells simultaneously. Calcium flux was measured using a fluorescence imaging plate reader (FLIPR) tetra system (Molecular Devices, Sunnyvale, CA).
[formula] the pharmacological effect and Emax denotes the maximum possible effect; [A] and [B] are the concentrations of ACh and PAM, respectively; KA and KB denote the equilibrium dissociation constants of ACh and PAM, respectively; τA and τB represent the operational measures of ACh and PAM efficacy, respectively; a is the binding cooperativity between ACh and PAM (activity to enhance ACh affinity to M1R); β is the magnitude of the allosteric effect of PAM on the signaling efficacy of ACh; n denotes the slope factor. For the analysis of functional data, the equilibrium dissociation constant of each PAM and the cooperativity between ACh and each PAM were fixed to those determined from the binding experiments.
EC50, eliciting 50% of the maximal response of an endogenous ligand, ACh, reflects the agonistic activity for M1R under conditions without ACh. […] Results of the in vitro functional parameters for M1R represent the mean and S.E.M. of three independent experiments. N/A stands for “not available”. PAM means positive allosteric modulator (Table 1).

The next data set concerns mice. Kind of data set: Assessment of diarrhea in mice. In kind it is in vivo, mouse. The note with it: for diarrhea induction: mice. How it is done:
FIG. 1 depicts diarrhea induction by Compound C treatment in WT and M1R KO mice (hereinafter sometimes to be indicated as “MIKO mouse” in the present DESCRIPTION) (Example 11). […] The maximum score during the observation was adopted.
On the day of the experiment, mice were randomly divided into four groups (n=6-9). […] Each mouse was treated with either vehicle (10 or 20 mL/kg) or a single dose of each compound, including Compound A (3, 10 or 30 mg/kg p.o.), Compound B (10, 30, 100, 300 or 1,000 mg/kg p.o.) or Compound C (10 mg/kg p.o.). The animals were monitored, and scored the severity of diarrhea at 0.5, 1, 2, 4 and 6 h after administration. […] The highest score during the observation was adopted.

Another data set deals with T3, M2R (Homo sapiens, UniProt P08172).
T3 sequence (P08172 1-466): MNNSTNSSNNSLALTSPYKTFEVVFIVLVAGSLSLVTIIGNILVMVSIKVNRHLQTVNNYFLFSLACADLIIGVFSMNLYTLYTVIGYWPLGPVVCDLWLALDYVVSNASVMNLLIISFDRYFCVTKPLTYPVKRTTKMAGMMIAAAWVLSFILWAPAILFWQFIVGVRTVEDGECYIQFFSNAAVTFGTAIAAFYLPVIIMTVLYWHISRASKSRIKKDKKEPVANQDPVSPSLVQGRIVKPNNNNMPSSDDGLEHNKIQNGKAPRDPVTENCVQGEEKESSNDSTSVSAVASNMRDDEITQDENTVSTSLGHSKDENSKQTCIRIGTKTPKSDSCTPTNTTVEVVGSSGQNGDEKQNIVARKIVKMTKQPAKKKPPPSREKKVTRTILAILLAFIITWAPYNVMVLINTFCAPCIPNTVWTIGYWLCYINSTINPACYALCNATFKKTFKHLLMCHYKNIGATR
Kind of data set: Ca2+ flux PAM activity against other muscarinic receptor subtypes, M2R. The format is cell-based. The note with it: in the presence of EC20 ACh; read-out: PAM activity against other muscarinic receptor subtypes M2R pIP.

Where [1] appears, read: inflection point in the presence of EC20 ACh, read-out: M1PAM activity pIP Mean (converted).
Where [2] appears, read: without ACh, read-out: M1 agonist activity pEC50 Mean (converted).

Where two headings read alike, the source gives them in different places. Bounds are passed on as bounds.

For `Cn1cc(-c2ccc(Cc3cc4c(=O)n([C@H]5CCCC[C@@H]5O)cnc4c4ccccc34)cn2)cn1` [Compound C, 3-((1S,2S)-2-hydroxycyclohexyl)-6-((6-(1-methyl-1H-pyrazol-4-yl)pyridin-3-yl)methyl)benzo[h]quinazoline-4(3H)-one, reference compound], the EC50 was more than 10000 nM on M4R, 2.09 nM at human M1Rs (setting [1]), 1.62 nM on human M1Rs (setting [2]) and more than 10000 nM at M2R. The “log β Mean” value at human M1Rs is on record as −0.39. Further, at human M1Rs, the “Log TB Mean” value was determined as 1.49. For the same compound, the “diarrhea induction in M1R KO mice” value in the data set with mice (10 mg/kg p.o., M1R KO mice) is reported as “not in M1R KO mice”. Further, in the data set on mice (10 mg/kg p.o., WT mice), the “diarrhea induction in WT mice” value is “induced diarrhea”.
Turning to `Cn1cc(-c2ccc(CN3Cc4cccc(-c5ccn[nH]5)c4C3=O)cc2)cn1` [Compound G, 2-(4-(1-methyl-1H-pyrazol-4-yl)benzyl)-7-(1H-pyrazol-5-yl)isoindolin-1-one], the EC50 on M4R was more than 10000 nM; at human M1Rs (setting [1]), 275 nM; at human M1Rs (setting [2]), more than 10000 nM; at M2R, more than 10000 nM. Besides, the “log β Mean” value at human M1Rs was determined as 0.85.
Take `Cn1ccc(-c2ccc(CN3Cc4cccc(O[C@H]5CCCC[C@@H]5O)c4C3=O)cc2)n1` [Compound A, 7-(((1S,2S)-2-hydroxycyclohexyl)oxy)-2-(4-(1-methyl-1H-pyrazol-3-yl)benzyl)isoindolin-1-one]: the EC50 on M4R was 1000 nM; at human M1Rs (setting [1]) it was 10.2 nM; on human M1Rs (setting [2]), 72.4 nM; at M2R, more than 10000 nM. Further, the “log β Mean” value on human M1Rs came out at 0.13. For the same compound, the “Log TB Mean” value on human M1Rs is given as 2.06. Further, the diarrhea induction entry in the data set with mice (10 and 30 mg/kg p.o.) is recorded as “caused severe diarrhea”.
On to `O=c1c2cn(Cc3ccc(-n4cccn4)cc3)c3ccccc3c-2nn1-c1ccccc1F` [Compound E, 2-(2-fluorophenyl)-5-(4-(1H-pyrazol-1-yl)benzyl)-2,5-dihydro-3H-pyrazolo[4,3-c]quinolin-3-one, reference compound], for which the EC50 at M4R is more than 10000 nM; at human M1Rs (setting [1]), 8.51 nM; on human M1Rs (setting [2]), 219 nM; on M2R it was more than 10000 nM. The “log β Mean” value on human M1Rs is given as −0.23. Moreover, the “Log TB Mean” value at human M1Rs amounted to 0.65.
As for `Cn1cc(-c2ccc(CN3Cc4cccc(Oc5c(F)cccc5C#N)c4C3=O)cc2)cn1` [Compound B, 3-fluoro-2-((2-(4-(1-methyl-1H-pyrazol-4-yl)benzyl)-3-oxo-2,3-dihydro-1H-isoindol-4-yl)oxy)benzonitrile], the EC50 on M4R is more than 10000 nM; on human M1Rs (setting [1]), 40.7 nM; at human M1Rs (setting [2]) it was 676 nM; at M2R, more than 10000 nM. Also, the “log β Mean” value on human M1Rs came to 0.58. At human M1Rs, the “Log TB Mean” value is −0.10. For the same compound, the diarrhea induction result in the data set on mice (up to 1000 mg/kg p.o.) is recorded as “did not induce severe diarrhea”.
For the compound `Cn1cc(-c2ccc(CN3Cc4cccc(OCCN5CCCCC5)c4C3=O)cc2)cn1` [Compound F, 2-(4-(1-methyl-1H-pyrazol-4-yl)benzyl)-7-(2-(piperidin-1-yl)ethoxy)isoindolin-1-one], the EC50 is more than 10000 nM at M4R, 79.4 nM on human M1Rs (setting [1]), 2090 nM on human M1Rs (setting [2]) and more than 10000 nM on M2R. Besides, the “log β Mean” value on human M1Rs came to 0.87. Also, at human M1Rs, the “Log TB Mean” value is 0.15.
